Assays:
[1] = tested on: intact heart, beta-adrenergic stimulation by ISO; assay: Contractility response of intact heart to isoproterenol (ISO); type: in vivo, mouse
Source text: Regulation of acute beta-adrenergic stress by PDE5a inhibition (resulting in a rise in cGMP and activation of protein kinase G) requires the activity of nitric oxide synthase (NOS). […] This can be offset by chronic distal activation of the NO target protein soluble guanylate cyclase 9sGC). At the left are bars depicting the contractility response of an intact heart to ISO before and after co-administration of SIL. The ISO response is normally blunted by nearly 80%. The middle bars show data from mice with NOS inhibited by L-NAME (1 mg/L in drinking water). […] However, if one continues to treat hearts with the soluble guanylate cyclase activator (BAY 41-8543) for a week-all the while continuing NOS inhibition with L-NAME, the ability of SIL to suppress adrenergic stimulation is restored.

[2] = tested on: C57/BL6 WT mice subjected to TAC pressure overload; assay: Body weight and heart weight in mice subjected to transverse aortic constriction (TAC); type: in vivo, mouse; settings: TAC 3 weeks, oral co-treatment 1 mg/g food, mean ± sem
Source text: Male NOS3 null mice (NOS3^−/−) and C57/BL6 WT controls (8-11 weeks, Jackson Labs, Bar Harbor, Me., USA) were used. Pressure overload was produced by transverse aorta constriction (TAC). Briefly, The aortic arch was isolated by entering the extrapleural space between the second and third rib, and afterwards the transverse aorta was isolated between the right and left carotid arteries. A 7-0 prolene suture ligature was tied around the transverse aorta against a 27-gauge needle to produce a 65-70% constriction after the removal of the needle. After closing the chest, animals were extubated, and a subcutaneous injection of morphine sulphate 0.2 mg, was administered before they returned to their cages. Animal's ventilatory and circulatory status was checked every 30 minutes during the first 2 hours. Sham-operated mice underwent the same operation except for aortic constriction. […] Animals were randomized to receive placebo or BH4 (120 mg/kg/d) for the next 5 weeks. At the end of the study, i.e. at 9 weeks, animal were sacrificed to receive tissue or underwent in vivo PV-loop analysis. […] Control mice were subject to sham operations, and animals were studied 3-9 weeks following surgery. […]

[3] = tested on: C57/BL6 WT mice subjected to TAC pressure overload; assay: Transthoracic echocardiography in conscious TAC mice; type: in vivo, mouse
Source text: (§1) Male NOS3 null mice (NOS3^−/−) and C57/BL6 WT controls (8-11 weeks, Jackson Labs, Bar Harbor, Me., USA) were used. Pressure overload was produced by transverse aorta constriction (TAC). Briefly, The aortic arch was isolated by entering the extrapleural space between the second and third rib, and afterwards the transverse aorta was isolated between the right and left carotid arteries. A 7-0 prolene suture ligature was tied around the transverse aorta against a 27-gauge needle to produce a 65-70% constriction after the removal of the needle. After closing the chest, animals were extubated, and a subcutaneous injection of morphine sulphate 0.2 mg, was administered before they returned to their cages. Animal's ventilatory and circulatory status was checked every 30 minutes during the first 2 hours. Sham-operated mice underwent the same operation except for aortic constriction. […] Animals were randomized to receive placebo or BH4 (120 mg/kg/d) for the next 5 weeks. At the end of the study, i.e. at 9 weeks, animal were sacrificed to receive tissue or underwent in vivo PV-loop analysis. […] Control mice were subject to sham operations, and animals were studied 3-9 weeks following surgery. An additional group of wild-type animals were subjected to TAC for 3 weeks while co-treated with oral tetrahydrobiopterin (BH4) (Sigma-Aldrich) (1 mg/g food) mixed in their rodent chow, providing 5 mg/day based on 4-6 g daily diet^8.
(§2) Two different BH4 treatment protocols are used. For experiments related to FIGS. 1-7, where prevention of cardiac indications is described BH4 is provided orally as a treatment starting 2 days after TAC surgery (once mice are again eating oral diet). For those figures related to treatment of established cardiac indications, FIGS. 8-23, BH4 is provided orally but this is delayed for 4 weeks to establish substantial cardiac hypertrophy, remodeling, and NOS-uncoupling. Then the treatment is provided for the remaining 5 week period.
For folate studies, C57/BL6 WT were treated with folate (10 mg/kg/day) or with placebo for a 9 week period during which time the hearts were exposed to TAC.
In vivo cardiac morphology was assessed by transthoracic echocardiography (Acuson Sequoia C256, 13 MHz transducer, Siemens) in conscious mice. M-mode left ventricular (LV) end-systolic and end-diastolic dimensions were averaged from 3-5 beats. Left ventricular ejection fraction (LVEF) and percent fractional shortening (% FS) were calculated as: LVEF=[(LVEDD)^3-(LVESD)^3]/(LVEDD)^3×100; % FS=(LVEDD−LVESD)/LVEDD×100. Wall thickness of lateral freewall and intraventricular septum were averaged. Studies and analysis were performed blinded to heart condition.

[4] = tested on: C57/BL6 WT mice subjected to TAC pressure overload; assay: In vivo hemodynamics, PV loop analysis, in TAC mice; set-up: species or system mouse; settings: TAC 3 weeks, oral co-treatment 1 mg/g food, mean ± sem
Source text: as §1, §2
In vivo left ventricular (LV) function was assessed by pressure-volume catheter^12,13. Mice were anesthetized with 1-2% isoflurane, urethane ([…], i.p.), etomidate (5-10 mg/kg, i.p.), and morphine (1-2 mg/kg, i.p.), underwent tracheostomy, and were ventilated with 6-7 μL/g tidal volume and 130 breaths/min. Volume expansion (12.5% human albumin, 50-100 μL over 5 min) was provided through a 30 G cannula via the right external jugular vein. The left ventricular apex was exposed through an incision between the 7-8th rib, and a catheter, specifically a 1.4 Fr PV catheter (SPR 839, Millar Instruments, Inc.), was advanced through the apex to lie along the longitudinal axis. Absolute volume was calibrated, and pressure-volume data was measured at steady state and during transient reduction of venous return as reported^13

NOS = molecular target: T1, NOS (Mus musculus, UniProt P70313); assay: Luminol chemiluminescence of heart tissue extracts with or without co-incubation with L-NAME (NOS-derived O2−); type: biochemical; settings: 1 mM co-incubation
T1 construct: from tissue; host or cells: mouse left ventricular tissue homogenate
T1 sequence (P70313 2-1202): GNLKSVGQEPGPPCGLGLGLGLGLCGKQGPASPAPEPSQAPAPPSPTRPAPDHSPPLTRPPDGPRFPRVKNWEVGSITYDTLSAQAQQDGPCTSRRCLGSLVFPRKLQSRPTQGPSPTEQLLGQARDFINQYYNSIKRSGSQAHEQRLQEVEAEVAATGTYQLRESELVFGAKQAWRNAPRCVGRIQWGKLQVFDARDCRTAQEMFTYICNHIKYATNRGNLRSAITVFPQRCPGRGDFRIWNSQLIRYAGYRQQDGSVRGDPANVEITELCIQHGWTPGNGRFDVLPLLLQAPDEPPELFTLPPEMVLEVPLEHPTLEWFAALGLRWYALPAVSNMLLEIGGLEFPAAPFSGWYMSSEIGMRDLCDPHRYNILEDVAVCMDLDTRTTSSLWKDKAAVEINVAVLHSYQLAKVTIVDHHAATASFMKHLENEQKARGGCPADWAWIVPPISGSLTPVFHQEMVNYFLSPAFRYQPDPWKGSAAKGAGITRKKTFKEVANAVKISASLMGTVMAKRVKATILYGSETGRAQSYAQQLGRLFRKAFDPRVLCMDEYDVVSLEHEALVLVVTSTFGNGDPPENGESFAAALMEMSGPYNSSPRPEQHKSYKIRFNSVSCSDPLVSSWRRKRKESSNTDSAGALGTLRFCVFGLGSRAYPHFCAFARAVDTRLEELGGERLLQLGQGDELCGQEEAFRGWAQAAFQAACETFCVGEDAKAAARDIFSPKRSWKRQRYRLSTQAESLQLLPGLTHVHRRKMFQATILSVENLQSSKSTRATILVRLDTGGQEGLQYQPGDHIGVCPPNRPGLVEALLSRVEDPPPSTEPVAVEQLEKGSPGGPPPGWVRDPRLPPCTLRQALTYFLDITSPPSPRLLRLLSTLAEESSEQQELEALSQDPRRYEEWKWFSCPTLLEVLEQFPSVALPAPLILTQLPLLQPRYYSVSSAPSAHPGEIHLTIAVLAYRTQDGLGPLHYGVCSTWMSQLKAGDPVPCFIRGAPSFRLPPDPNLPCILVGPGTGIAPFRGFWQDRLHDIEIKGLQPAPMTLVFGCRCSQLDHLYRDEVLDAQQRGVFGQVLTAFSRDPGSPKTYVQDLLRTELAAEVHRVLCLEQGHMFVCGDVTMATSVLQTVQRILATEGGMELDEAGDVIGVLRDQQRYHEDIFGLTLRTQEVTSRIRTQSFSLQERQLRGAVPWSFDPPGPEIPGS
Protocol: Given the decline in NO-synthetic activity, it was next tested whether NOS-derived O2^− increased with TAC. Tissue extracts were subjected to luminol chemiluminescence assay with or without co-incubation with the NOS inhibitor L-NAME (1 mM). The relative contribution of NOS was minimal under basal conditions, but rose markedly (˜50%) after 3- and 9-weeks TAC (FIG. 6D). Control data in NOS3^−/− hearts confirmed this to be from NOS3 and not the other NOS isoforms.
Reactive oxygen species generation was examined by several independent methods. Superoxide production in left ventricular tissue homogenates was determined by luminol-enhanced chemiluminescence (EMD Biosciences). Flash frozen myocardium was homogenized in iced PBS buffer, centrifuged, and the precipitate re-suspended in assay buffer to a final concentration of 100 μM luminol following manufacturer's instructions. Phorbol-12-myristate-13-acetate or other oxidase stimulators were not used in the assay. Data were normalized by sample weight. […] Nitrotyrosine was also quantitatively assessed by ELISA assay (Oxis International).

[5] = healthy subjects, cited from earlier work
[6] = tested on: Adult myocytes isolated from wild-type C57/B16 mouse hearts; assay: Sarcomere shortening of isolated adult myocytes exposed to isoproterenol; type: cell-based; settings: myocytes from 3-4 weeks TAC hearts first treated with the anti-oxidant
[7] = WT mice, TAC 3 weeks, oral co-treatment 1 mg/g food, mean ± sem
[8] = TAC up to 9 weeks, folate 10 mg/kg/day vs placebo, p<0.05

Nc1nc(-c2nn(Cc3ccccc3F)c3ncccc23)nc(N)c1N1CCOCC1 [BAY 41-8543]
restoration of the ability of SIL to suppress ISO stimulated contractility ([1]; acute administration of sGC activator, L-NAME for 1 week): does not reverse this | restoration of the ability of SIL to suppress adrenergic stimulation ([1]; sGC activator for a week while continuing L-NAME): restored

C[C@H](O)[C@H](O)[C@H]1CNc2nc(N)[nH]c(=O)c2N1 [BH4, (6R)-5,6,7,8-tetrahydrobiopterin]
Heart Weight (HW) [2]: 170.3 ± 3.9 mg | Fractional Shortening [3, 7]: 61.7 ± 1.7 % | LV diameter Diastole [3, 7]: 2.87 ± 0.06 mm | LV diameter Systole [3, 7]: 1.12 ± 0.06 mm | Wall thickness [3, 7]: 1.09 ± 0.03 mm | Arterial Elastance [4]: 10.6 ± 0.7 mmHg/μL | Ejection Fraction [4]: 78.4 ± 5.8 % | End-diastolic Volume [4]: 20.5 ± 1.9 µL | End-systolic Elastance [4]: 115.1 ± 9.6 mmHg/μL · g | End-systolic Volume [4]: 4.8 ± 1.7 µL | Heart RateR [4]: 603.3 ± 22.9 min⁻¹ | LV Systolic Pressure [4]: 193.0 ± 1.7 mmHg | Peak Power Index [4]: 75.5 ± 10.5 mmHg/s | Tau [4]: 3.5 ± 0.2 ms | dPdtmn [4]: −15743 ± 1325 mmHg/s | dPdtmx [4]: 17003 ± 1125 mmHg/s

COC(=O)[C@@H](N)CCCNC(=N)N[N+](=O)[O-] [L-NAME]
inhibition of luminol chemiluminescence (NOS; 3 weeks and 9 weeks WT-TAC heart lysates): ~50% | inhibition of luminol chemiluminescence (NOS; baseline (sham) heart lysates): < 15%

CN1CC(=O)N2[C@H](c3ccc4c(c3)OCO4)c3[nH]c4ccccc4c3C[C@@H]2C1=O [Tadalafil, tadalafil]
time of peak plasma concentration post-dose ([5]; oral 20 mg dose): two | apparent oral clearance (CL/F) ([5]; oral): 2.48 L/h | mean elimination half-life ([5]; oral): about 17.5 h

Nc1nc2ncc(CNc3ccc(C(=O)N[C@@H](CCC(=O)O)C(=O)O)cc3)nc2c(=O)[nH]1 [folate, folic acid]
LV mass [3, 8]: reduced | cardiac dilation [3, 8]: diminished | Ejection Fraction ([3]; TAC up to 9 weeks, folate 10 mg/kg/day vs placebo, p=0.05): significantly improved

N[C@@H](CCC(=O)N[C@@H](CS)C(=O)NCC(=O)O)C(=O)O [reduced glutathione]
capacity of PDE5a inhibition to blunt the beta-adrenergic response after anti-oxidant pre-treatment [6]: recovered
